The values that follow come from patent US20040266843A1, “Sulfonamide substituted indolinones as inhibitors of DNA dependent protein kinase (DNA-PK)” (Sugen, Inc., priority 2003, published 2004).

pIC50: −log10 of the molar value.

Chain of DNA-PKcs (P78527 whole entry, the tested form may be a part): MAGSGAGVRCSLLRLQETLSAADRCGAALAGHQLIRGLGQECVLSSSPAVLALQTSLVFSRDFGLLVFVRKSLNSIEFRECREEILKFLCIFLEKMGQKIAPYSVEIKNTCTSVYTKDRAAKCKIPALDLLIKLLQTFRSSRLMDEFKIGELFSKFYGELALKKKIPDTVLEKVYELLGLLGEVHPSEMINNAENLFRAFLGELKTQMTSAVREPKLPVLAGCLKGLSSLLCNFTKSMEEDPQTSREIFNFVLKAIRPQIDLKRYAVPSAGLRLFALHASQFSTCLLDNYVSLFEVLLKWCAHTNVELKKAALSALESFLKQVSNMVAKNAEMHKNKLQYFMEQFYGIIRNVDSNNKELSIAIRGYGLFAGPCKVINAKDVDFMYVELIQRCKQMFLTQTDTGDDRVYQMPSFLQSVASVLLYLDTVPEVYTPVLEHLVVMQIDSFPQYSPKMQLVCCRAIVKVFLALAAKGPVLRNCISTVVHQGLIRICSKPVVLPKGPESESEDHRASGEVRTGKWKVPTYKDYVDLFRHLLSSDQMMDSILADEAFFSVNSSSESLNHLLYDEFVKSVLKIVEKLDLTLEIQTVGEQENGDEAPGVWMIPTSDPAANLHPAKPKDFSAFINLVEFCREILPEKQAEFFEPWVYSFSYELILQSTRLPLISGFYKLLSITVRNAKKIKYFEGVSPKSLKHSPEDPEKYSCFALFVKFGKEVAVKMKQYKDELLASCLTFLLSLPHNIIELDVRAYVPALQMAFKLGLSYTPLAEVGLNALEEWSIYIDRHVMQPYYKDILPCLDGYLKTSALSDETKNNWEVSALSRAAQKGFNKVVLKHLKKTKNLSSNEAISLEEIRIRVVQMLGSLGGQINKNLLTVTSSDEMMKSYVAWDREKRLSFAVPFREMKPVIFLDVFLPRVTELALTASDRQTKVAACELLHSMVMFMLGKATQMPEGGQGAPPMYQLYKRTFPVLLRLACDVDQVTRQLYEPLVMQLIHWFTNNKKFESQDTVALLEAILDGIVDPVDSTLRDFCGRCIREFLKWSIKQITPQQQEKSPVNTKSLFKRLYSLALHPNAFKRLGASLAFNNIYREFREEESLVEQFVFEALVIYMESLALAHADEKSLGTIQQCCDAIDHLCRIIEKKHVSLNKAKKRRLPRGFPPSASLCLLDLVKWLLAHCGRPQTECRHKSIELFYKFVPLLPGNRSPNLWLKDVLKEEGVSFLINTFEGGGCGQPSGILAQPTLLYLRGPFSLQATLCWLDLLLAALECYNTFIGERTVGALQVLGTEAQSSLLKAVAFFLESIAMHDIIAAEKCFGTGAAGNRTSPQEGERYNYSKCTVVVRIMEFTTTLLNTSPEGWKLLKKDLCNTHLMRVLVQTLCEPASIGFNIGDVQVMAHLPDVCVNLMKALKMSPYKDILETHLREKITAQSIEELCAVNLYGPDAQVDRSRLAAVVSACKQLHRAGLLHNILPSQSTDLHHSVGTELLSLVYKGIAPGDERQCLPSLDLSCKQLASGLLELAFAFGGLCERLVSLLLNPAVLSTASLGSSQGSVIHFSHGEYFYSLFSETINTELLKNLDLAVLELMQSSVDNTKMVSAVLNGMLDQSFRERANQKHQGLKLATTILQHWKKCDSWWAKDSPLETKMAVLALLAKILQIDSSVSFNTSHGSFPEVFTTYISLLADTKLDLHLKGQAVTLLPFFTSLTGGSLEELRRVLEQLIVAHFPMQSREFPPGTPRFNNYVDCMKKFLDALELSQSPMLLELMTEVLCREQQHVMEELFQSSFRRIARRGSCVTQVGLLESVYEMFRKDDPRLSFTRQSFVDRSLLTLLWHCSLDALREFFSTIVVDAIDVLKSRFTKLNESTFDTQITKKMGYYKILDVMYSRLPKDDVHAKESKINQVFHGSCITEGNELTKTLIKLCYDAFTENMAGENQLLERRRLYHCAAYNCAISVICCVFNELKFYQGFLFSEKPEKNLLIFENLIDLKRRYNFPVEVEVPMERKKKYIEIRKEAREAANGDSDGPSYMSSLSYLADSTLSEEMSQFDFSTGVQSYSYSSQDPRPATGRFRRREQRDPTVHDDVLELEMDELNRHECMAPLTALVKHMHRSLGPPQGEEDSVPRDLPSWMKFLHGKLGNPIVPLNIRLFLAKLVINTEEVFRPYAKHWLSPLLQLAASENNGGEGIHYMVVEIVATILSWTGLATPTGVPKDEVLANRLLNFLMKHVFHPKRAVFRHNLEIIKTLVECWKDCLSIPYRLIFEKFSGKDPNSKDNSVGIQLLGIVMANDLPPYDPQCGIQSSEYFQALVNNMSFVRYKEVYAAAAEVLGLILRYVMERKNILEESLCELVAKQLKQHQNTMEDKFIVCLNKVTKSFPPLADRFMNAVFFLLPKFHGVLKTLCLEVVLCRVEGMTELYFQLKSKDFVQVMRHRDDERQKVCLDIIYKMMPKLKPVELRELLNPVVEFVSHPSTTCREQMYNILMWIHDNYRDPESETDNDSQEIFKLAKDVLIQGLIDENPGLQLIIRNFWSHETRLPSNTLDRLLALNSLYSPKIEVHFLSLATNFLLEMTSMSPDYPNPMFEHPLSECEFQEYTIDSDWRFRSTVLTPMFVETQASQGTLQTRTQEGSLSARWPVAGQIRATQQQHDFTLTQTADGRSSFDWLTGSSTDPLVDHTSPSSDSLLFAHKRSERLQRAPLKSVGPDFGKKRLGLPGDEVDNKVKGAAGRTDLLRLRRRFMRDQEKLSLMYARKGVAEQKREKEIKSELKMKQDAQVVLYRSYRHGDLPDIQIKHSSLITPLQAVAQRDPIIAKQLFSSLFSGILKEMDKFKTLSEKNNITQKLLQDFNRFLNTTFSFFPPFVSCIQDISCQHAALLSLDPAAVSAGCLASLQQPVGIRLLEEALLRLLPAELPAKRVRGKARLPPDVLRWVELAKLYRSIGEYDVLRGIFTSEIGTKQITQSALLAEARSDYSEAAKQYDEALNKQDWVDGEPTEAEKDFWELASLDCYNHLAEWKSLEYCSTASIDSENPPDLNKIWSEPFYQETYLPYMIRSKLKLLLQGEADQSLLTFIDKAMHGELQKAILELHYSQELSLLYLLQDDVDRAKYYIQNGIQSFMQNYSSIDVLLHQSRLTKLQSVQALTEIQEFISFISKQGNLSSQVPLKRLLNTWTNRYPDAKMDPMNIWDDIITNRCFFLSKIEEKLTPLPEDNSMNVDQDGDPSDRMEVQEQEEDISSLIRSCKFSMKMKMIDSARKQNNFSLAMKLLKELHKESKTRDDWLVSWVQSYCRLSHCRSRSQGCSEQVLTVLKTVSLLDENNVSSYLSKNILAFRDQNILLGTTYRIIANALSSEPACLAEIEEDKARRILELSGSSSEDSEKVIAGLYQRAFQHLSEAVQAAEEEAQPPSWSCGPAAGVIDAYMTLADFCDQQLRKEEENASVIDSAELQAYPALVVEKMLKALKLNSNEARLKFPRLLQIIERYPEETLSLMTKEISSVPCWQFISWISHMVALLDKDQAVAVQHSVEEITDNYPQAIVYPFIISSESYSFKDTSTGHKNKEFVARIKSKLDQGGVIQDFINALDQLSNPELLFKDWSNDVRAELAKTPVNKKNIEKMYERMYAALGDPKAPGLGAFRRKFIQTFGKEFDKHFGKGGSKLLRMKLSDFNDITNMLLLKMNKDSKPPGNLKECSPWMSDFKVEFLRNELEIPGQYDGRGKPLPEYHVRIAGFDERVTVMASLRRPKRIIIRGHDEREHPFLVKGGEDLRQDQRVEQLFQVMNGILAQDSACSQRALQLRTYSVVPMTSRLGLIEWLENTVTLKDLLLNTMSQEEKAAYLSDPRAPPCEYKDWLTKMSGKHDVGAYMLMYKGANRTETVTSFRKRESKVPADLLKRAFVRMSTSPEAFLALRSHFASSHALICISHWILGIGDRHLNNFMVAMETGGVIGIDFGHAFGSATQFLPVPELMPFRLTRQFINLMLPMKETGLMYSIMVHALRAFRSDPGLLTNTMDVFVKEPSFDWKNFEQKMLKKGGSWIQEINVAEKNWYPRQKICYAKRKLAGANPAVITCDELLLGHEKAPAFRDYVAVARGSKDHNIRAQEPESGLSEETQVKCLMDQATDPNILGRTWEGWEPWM

System in one data set: not listed separately
The experiment in a line: Storage stability of stock solution. The format is physicochemical. As to conditions: 2 mM in DMSO, stored at −70° C., after 12 months. How it is done:
3-[2,4-Diethyl-5-(2-oxo-5-phenylsulfamoyl-1,2-dihydro-indol-3-ylidenemethyl)-1H-pyrrol-3-yl]-propionic acid was dissolved in DMSO at 20 mg/ml and stored at −70° C. Calicheamicin μl was a generous gift from George Ellestad (Wyeth-Ayers Research). The drug was dissolved at 2 mM in DMSO (Sigma) and stored at −70° C. […] Wortmannin (Sigma) was dissolved at 1 mg/ml in DMSO and stored at −70° C. Recombinant p110 was purchased from Alexis and stored at −70° C. The glioblastoma cell line Mo59K and primary human fibroblasts was grown in Dulbecos MEM with glutamax (Invitrogen) supplemented with 10% Fetal calf serum, streptomycin and penicillin at 37° C. in a humidified cell incubator with 5% CO2. FACS analysis of cell cycle distribution after propiumiodide staining was done using standard protocols. Monolayers were irradiated on ice using a Philips RT 100 X-ray machine. An acceleration voltage of 70 kV was used.
For the molecule calicheamicin μl, the “loss of activity on storage” value is “no loss of activity”.

A further data set has as its target DNA-PKcs (Homo sapiens, UniProt P78527). The experiment in a line: DNA-PK assay, Scintillation Proximity Assay (SPA) format. The format is biochemical. The following applies: room temperature, 0.23 nM DNA-PKcs, 0.3 μM ATP, 1% DMSO. How it is done:
The assay for DNA-PK was optimized to be performed in 96-well plates using a Scintillation Proximity Assay (SPA) format at room temperature. […] When inhibitors were included, they were diluted to 5× the desired concentration in 5% DMSO and diluted 1:5 in the reaction mixture bringing the final DMSO concentration to 1%. […] Activating DNA-DNA fragment consisting of 32 complementary base pairs with 5 non-complementary T's on both ends of the two strands Sequence-[NT], and of the complementary strand-[NT]. […] Peptide substrate-biotin-[…]. Dissolved in DMSO at a concentration of 5 mg/ml for the stock solution. Alternatively, fragments of the peptide substrate can be used, such as, without limitation, […]. The kinase reaction was stopped by adding […] of a solution containing 50 μM ATP, 5 mM EDTA, 0.1% Triton X-100, and 0.5 mg of streptavidin coated polyvinyltoluene SPA beads (Amersham). After a 10 min. incubation and a short spin (to pellet the beads), the plates were read on a Trilux plate reader.
In general terms: In a scintillation proximity assay essentially only radioactivity close to the scintillant gives light.
For orientation: pIC50 means −log10 of the IC50, conventionally taken in molar units. High values mean a small IC50, low ones a large IC50. “2-oxo-3-[5-(2-pyrrolidin-1-yl-ethoxy-1H-indol-2-ylmethylene]-2,3-dihydro-1H-indole-sulfonic acid amide” showed a negative-log IC50 (pIC50) of 5.77.
For the molecule `CNS(=O)(=O)c1ccc2c(c1)C(=Cc1[nH]c3c(c1CCCN(C)C)CCCC3)C(=O)N2` [3-{3-(3-dimethylamino-propyl)-4,5,6,7-tetrahydro-1H-indol-2-ylmethylene]-2-oxo-2,3-dihydro-1H-indole-5-sulfonic acid methylamide], the negative-log IC50 (pIC50) is 4.18.
Same read-out and setting: to `Cc1c(CCC(=O)O)c[nH]c1/C=C1\C(=O)Nc2ccc(I)cc21` [3-{5-[(Z)-(5-iodo-2-oxo-1,2-dihydro-3H-indol-3-ylidene)methyl]-4-methyl-1H-pyrrol-3-yl}propanoic acid] belongs 5.82.
On the same count and under the same terms, the same measure for `CCN(CC)CCNC(=O)c1c(C)[nH]c(C=C2C(=O)Nc3ccc(Br)cc32)c1C` [5-(5-bromo-2-oxo-1,2-dihydro-indol-3-ylidenemethyl)-2,4-dimethyl-1H-pyrrole-3-carboxylic acid-(2-diethylamino-ethyl)-amide]: 4.47.
Still for that read-out and setting: to `CCc1[nH]c(/C=C2\C(=O)Nc3ccc(S(=O)(=O)Nc4ccccc4)cc32)c(CC)c1CCC(=O)O` [Example 83, 3-[2,4-Diethyl-5-(2-oxo-5-phenylsulfamoyl-1,2-dihydro-indol-3-ylidenemethyl)-1H-pyrrol-3-yl]-propionic acid] belongs 5.80.
